Laboratory results: PubChem BioAssay (NCI)
Values joined by “and” are separate entries in the source; they are usually repeats but may differ in a detail not shown here. Identical values can stand only once.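 The compound was tested at five concentrations on cells cultured in 96-well plates, with a 48-hour exposure period. Here, GI50 denotes the concentration required for 50% inhibition of growth. TGI denotes the concentration required for complete inhibition of growth.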

Key:
Experiment in all cases: NCI-60 cell line screen, 48 h
[1] = test system: SF-539 CNS
[2] = test system: SR leukemia
[3] = test system: CAKI-1 renal
[4] = test system: SK-MEL-2 melanoma
[5] = test system: OVCAR-3 ovarian
[6] = test system: OVCAR-5 ovarian
[7] = test system: HCC-2998 colon
[8] = test system: HOP-92 NSCLC
[9] = test system: HCT-116 colon
[10] = test system: SK-MEL-28 melanoma

SMILES	GI50 [1]	TGI [1]	GI50 [2]	TGI [2] [nM]	GI50 [3]	TGI [3]	GI50 [4] [nM]	TGI [4]	GI50 [5]	TGI [5] [nM]	GI50 [6]	TGI [6]	GI50 [7]	TGI [7]	GI50 [8]	TGI [8]	GI50 [9]	TGI [9]	GI50 [10] [nM]	TGI [10]
CC1=CC(=Nc2ccc(N(CCCl)CCCl)cc2)C=C(C)C1=O	448 nM	8710 nM	288 nM	> 33900	116 nM	1080 nM	1480	4770 nM	1050 nM	3130	2720 nM	11300 nM	2290 nM	9830 nM	392 nM	2060 nM	935 nM	2380 nM	2480	10100 nM
COc1ccc(-c2cc(=O)c3c(OC)c(OC)c(OC)cc3o2)cc1	–	> 100000 nM	–	> 100000	–	> 100000 nM	–	56000 nM	–	94900	–	> 100000 nM	–	49000 nM	–	79900 nM	–	> 100000 nM	–	> 100000 nM
COC12C=C(C)C(CC1)CC2C(=O)O (stereo not given)	–	> 100000 nM	–	> 100000	–	> 100000 nM	–	> 100000 nM	–	> 100000	–	> 100000 nM	–	> 100000 nM	–	> 100000 nM	–	> 100000 nM	–	> 100000 nM
O=C1c2cc(Cl)ccc2S(=O)(=O)c2c(NCCCNCCO)nc3ccccc3c21	1600 nM	3130 nM	466 nM	5110	1180 nM	2400 nM	1930	4740 nM	478 nM	1660	1650 nM	3320 nM	4310 nM	15100 nM	1010 nM	2440 nM	1490 nM	3260 nM	1760	3390 nM
C[C@@H]1OC(O)[C@@H](F)[C@H](O)[C@@H]1O (stereo not given in full)	> 100000 nM	> 100000 nM	> 100000 nM	> 100000	> 100000 nM	> 100000 nM	> 100000	> 100000 nM	> 100000 nM	> 100000	> 100000 nM	> 100000 nM	> 100000 nM	> 100000 nM	> 100000 nM	> 100000 nM	> 100000 nM	> 100000 nM	> 100000	> 100000 nM
CC[C@@H]1C(=O)N(C)c2cnc(Nc3ccc(C(=O)NC4CCN(C)CC4)cc3OC)nc2N1C1CCCC1	26.9 nM and 23.8 nM	352 nM and 583 nM	1.82 nM and < 10 nM	–	297 nM and 476 nM	> 10000 nM and 13600 nM	–	> 10000 nM and 6290 nM	3.53 nM and < 10 nM	–	4.08 nM and < 10 nM	> 10000 nM and 11800 nM	4.26 nM and < 10 nM	1420 nM and 506 nM	12.5 nM and 14.9 nM	563 nM and 2360 nM	3.66 nM and < 10 nM	> 4050 nM and 1450 nM	–	3320 nM and 2590 nM
CN1CCN(C)C12C=c1ccccc1=CC21CC1	–	> 100000 nM	–	63200	–	> 100000 nM	–	53700 nM	–	> 100000	–	> 100000 nM	–	30400 nM	–	79500 nM	–	56900 nM	–	43000 nM
CN1CCN(C(=O)OCc2nc3c(N4CCOCC4)nc(Cl)nc3n2C)CC1	1390 nM	2730 nM	241 nM	1330	1030 nM	2310 nM	1620	3450 nM	547 nM	2150	1600 nM	3540 nM	1620 nM	3150 nM	675 nM	2230 nM	343 nM	1620 nM	1580	3110 nM
CC1(C)OC2[C@@H](CNC(=O)NC(=O)NC(=O)CI)O[C@@H](n3cnc4c(NC(=O)Nc5ccccc5)ncnc43)[C@H]2O1 (stereo not given in full)	4750 nM	10900 nM	954 nM	2300	790 nM	1560 nM	10500	21500 nM	5720 nM	12600	8740 nM	18000 nM	9290 nM	19700 nM	1400 nM	4230 nM	10700 nM	25400 nM	8530	16000 nM
CC(=O)OCCN1c2ccccc2Sc2cnccc21	–	> 10000 nM	–	> 10000	–	> 10000 nM	–	> 10000 nM	–	> 10000	–	> 10000 nM	–	> 10000 nM	–	> 10000 nM	–	> 10000 nM	–	> 10000 nM
O=c1[nH]ncc(Br)c1Br	2420 nM	6310 nM	911 nM	3900	1440 nM	2740 nM	2160	5620 nM	1750 nM	3180	1690 nM	3080 nM	1890 nM	3380 nM	1790 nM	3310 nM	1800 nM	3420 nM	1740	3120 nM
O=C(/C(Br)=C/c1ccccc1)c1ccccc1	2120 nM	4720 nM	1410 nM	8740	1340 nM	3390 nM	3170	7380 nM	2200 nM	5590	3210 nM	9220 nM	6800 nM	19000 nM	1870 nM	4280 nM	1640 nM	3120 nM	5310	23100 nM
COc1cc(C2=C(c3ccccc3)COC2=O)cc(OC)c1OC	1260 nM	> 51400 nM	–	295	585 nM	> 27700 nM	7810	> 100000 nM	309 nM	2100	4840 nM	> 100000 nM	1270 nM	5970 nM	13600 nM	> 100000 nM	2290 nM	> 38100 nM	> 100000	> 100000 nM
CC(=O)OC[C@]1(C)C=C2C(=O)[C@](C)(O)C3(CC3)C(C)=C2[C@H]1O	166 nM	388 nM	66.7 nM	> 100000	41 nM	2580 nM	127	345 nM	42.4 nM	417	66.6 nM	506 nM	98.5 nM	353 nM	148 nM	623 nM	32.1 nM	> 100000 nM	215	575 nM
